Results taken from patent US20190133128A1, “Fungicidal pyridazinones” (FMC Corporation, priority 2017, published 2019).

Tests used:
Format in all cases: in vivo
[1] = test system: Puccinia recondita f. sp. tritici; assay: Test F: preventive spray on wheat seedlings, wheat leaf rust, visual disease rating; conditions: 250 ppm, 100 = 100% disease control, 0 = no control
Method in brief: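 Preventive test: wheat seedlings were sprayed to run-off with compound suspended in acetone/water 50/50 plus PEG400 (250 ppm or other indicated rate). One day later they received Puccinia recondita f. sp. tritici spores, and disease was scored visually.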

Phakopsora pachyrhizi = assay: Test A: preventive spray on soybean seedlings, Asian soybean rust, visual disease rating; conditions: 250 ppm, 100 = 100% disease control, 0 = no control
Zymoseptoria tritici = assay: Test E: preventive spray on wheat seedlings, wheat leaf blotch, visual disease rating; conditions: 250 ppm, 100 = 100% disease control, 0 = no control
Method in brief: (§1)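 Preventive foliar spray of wheat seedlings to run-off, at 250 ppm or other indicated rate. Compounds dissolved in acetone (3% of final volume), suspended in 50/50 acetone–water with PEG400 surfactant. Disease rated visually.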

Phytophthora infestans = assay: whole plant or invertebrate; conditions: 250 ppm; tomato seedlings; 100 = 100% disease control, 0 = no control
[2] = test system: Erysiphe graminis f. sp. tritici; assay: Test G: preventive spray on wheat seedlings, wheat powdery mildew, visual disease rating; conditions: 250 ppm, 100 = 100% disease control, 0 = no control
Method in brief: as §1

Plasmopara viticola = assay: Test B: preventive spray on grape seedlings, grape downy mildew, disease rating; conditions: 250 ppm, 100 = 100% disease control, 0 = no control
Description: General protocol for preparing test solutions for Tests AG: the test compounds were first dissolved in acetone in an amount equal to 3% of the final volume and then suspended at the desired concentration (in ppm) in acetone and purified water (50/50 mix by volume) containing the surfactant PEG400 (polyhydric alcohol esters). The resulting test suspensions were then used in Tests AG. Compounds were sprayed at a concentration of 250 ppm or other indicated rate to the point of run-off on the test plants. The test solution was sprayed to the point of run-off on grape seedlings. […] A dash (-) indicates no test results.

Botrytis cinerea = assay: Test C: preventive spray on tomato seedlings, gray mold, visual disease rating; conditions: 250 ppm, 100 = 100% disease control, 0 = no control
Method in brief: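 Tomato seedlings received a run-off spray, typically 250 ppm (or stated rate), ahead of gray mold inoculation and visual scoring. Test suspensions: acetone stock (3% of volume) diluted into 1:1 acetone/water containing PEG400.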

Structure (SMILES) | Test F disease control rating [1] | Test A disease control rating (Phakopsora pachyrhizi) | Test E disease control rating (Zymoseptoria tritici) | Test D disease control rating (Phytophthora infestans) | Test G disease control rating [2] | Test B disease control rating (Plasmopara viticola) | Test C disease control rating (Botrytis cinerea)
CON(C)c1cnn(C)c(=O)c1C(=O)Nc1ccc(OC(F)(F)F)cc1 [Compound 135] | 0% | 0% | 2% | 0% | 0% | 27% | 0%
Cn1ncc(O)c(C(=O)Nc2ccc(C(F)(F)F)cc2Cl)c1=O [Compound 137] | 96% | 0% | 30% | 97% | 47% | 100% | 0%
Cn1ncc(O)c(C(=O)Nc2ccc(CC(F)(F)F)cc2)c1=O [Compound 140] | 99% | 0% | 88% | 96% | 27% | 100% | 0%
Cn1ncc(O)c(C(=O)Nc2ccc(OC(F)(F)F)cc2Cl)c1=O [Compound 142] | 99% | 71% | 77% | 92% | 98% | 99% | 26%
CCCC[N+](CCCC)(CCCC)CCCC.Cn1ncc([O-])c(C(=O)Nc2ccc(S(F)(F)(F)(F)F)cc2)c1=O [Compound 143] | 94% | 62% | 88% | 70% | 69% | 100% | 0%
CNc1cnn(C)c(=O)c1C(=O)Nc1ccc(OC(F)(F)F)cc1 [Compound 146] | 0% | 0% | 0% | 0% | 0% | 10% | 0%
Cn1ncc(O)c(C(=O)Nc2ccc(C(F)(F)F)cc2C(F)(F)F)c1=O [Compound 147] | 99% | 0% | 87% | 99% | 98% | 97% | 0%
